We go through three compounds from publication PMC12365235, “Molecular mechanisms of thiazide-like diuretics-mediated inhibition of the human Na-Cl cotransporter” (Nature Communications, 2025).

“And” between values parts separate entries of the source, which are not always exact repeats. Equal entries are not always repeated.

As a reminder, the IC50 is the midpoint of a concentration-inhibition curve. Lower therefore signals greater potency in that assay.

Assay [1] deals with T1, hNCC(WT) (Homo sapiens, UniProt P55017).
T1 construct: expressed in transfected cells
T1 sequence (P55017 1-1021): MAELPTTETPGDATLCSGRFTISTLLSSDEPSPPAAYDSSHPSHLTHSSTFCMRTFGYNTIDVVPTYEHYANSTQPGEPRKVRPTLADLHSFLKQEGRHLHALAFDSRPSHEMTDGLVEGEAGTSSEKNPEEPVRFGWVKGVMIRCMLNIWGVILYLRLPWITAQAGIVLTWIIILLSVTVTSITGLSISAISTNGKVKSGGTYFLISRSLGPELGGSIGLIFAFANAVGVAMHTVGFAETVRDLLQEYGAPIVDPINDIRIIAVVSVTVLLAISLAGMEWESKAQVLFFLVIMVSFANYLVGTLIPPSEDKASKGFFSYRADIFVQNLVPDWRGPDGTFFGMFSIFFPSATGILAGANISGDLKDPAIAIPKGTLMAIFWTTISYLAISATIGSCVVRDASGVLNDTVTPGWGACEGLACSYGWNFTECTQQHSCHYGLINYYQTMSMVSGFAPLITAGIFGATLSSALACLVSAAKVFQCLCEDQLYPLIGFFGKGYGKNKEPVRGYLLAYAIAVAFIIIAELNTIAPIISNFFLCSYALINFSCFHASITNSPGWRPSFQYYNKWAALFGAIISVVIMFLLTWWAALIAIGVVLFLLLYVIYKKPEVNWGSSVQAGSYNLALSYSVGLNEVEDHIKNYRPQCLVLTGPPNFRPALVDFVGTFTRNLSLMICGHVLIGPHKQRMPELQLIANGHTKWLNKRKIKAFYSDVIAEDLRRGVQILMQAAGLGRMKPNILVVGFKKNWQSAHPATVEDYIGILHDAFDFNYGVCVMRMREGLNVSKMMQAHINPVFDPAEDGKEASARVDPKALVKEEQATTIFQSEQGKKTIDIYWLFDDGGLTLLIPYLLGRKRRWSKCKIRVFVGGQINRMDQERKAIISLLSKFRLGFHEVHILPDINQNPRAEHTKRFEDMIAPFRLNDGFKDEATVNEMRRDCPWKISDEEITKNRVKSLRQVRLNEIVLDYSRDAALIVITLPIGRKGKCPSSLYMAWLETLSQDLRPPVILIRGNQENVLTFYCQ
Description: 125I- uptake assay, HEK293S cells stably expressing hNCC(WT). It counts as cell-based. The following applies: for apparent affinity compared to polythiazide (times lower): hNCC(WT), Supplementary Fig. 2d. As for the experimental part:
(§1) HEK293S cell lines, cultured in 293 Freestyle medium (Life Technologies; plus 10% fetal bovine serum), stably expressing hNCC and its variants were generated following published protocols. Cells were transfected using Lipofectamine 3000 (Invitrogen) with a pSBbi-RP-based plasmid containing hNCC or its variants and the SB100X vector. Puromycin (2 μg/mL; Gemini Bio-Products) was used for selection of stable cell lines.
(§2) To prepare for the uptake experiment, cells were plated at 0.5 × 10^6 cells/well in 24-well plates one day in advance. To activate NCC, cells were treated with a chloride-free hypotonic solution composed of 67.5 mM sodium-, 2.5 mM potassium-, 0.25 mM magnesium-, and 0.25 mM calcium-gluconate, as well as 7.5 mM HEPES pH 7.4 (buffered using Tris) at 37 °C for 10 min[72]. After the activation step, the experiments were carried out at room temperature. Ten minutes before the start of ^125I^− uptake, 70 μM Bumetanide (Thermo Scientific Chemicals) and 100 μM 4,4′-diisothiocyanatostilbene-2,2′-disulfonic acid (DIDS; Sigma) were added to suppress background iodide uptake activity. Indicated thiazide diuretics were also added to the indicated concentrations 10 min before the start of ^125I^− uptake. The original buffer was switched to an uptake buffer composed of 135 mM Na-gluconate, 5 mM K-gluconate, 1 mM Mg-gluconate, 1 mM Ca-gluconate, 70 μM bumetanide, 100 μM DIDS, 1 mM NaI, 0.25 μCi/ml Na^125I (American Radiolabeled Chemicals, Inc.), and 15 mM HEPES pH 7.4 (buffered using Tris), in the presence or absence of thiazide diuretics to initiate ^125I^− uptake. The ^125I^− uptake process lasted 1 h and was stopped by two rapid washes using ice-cold 110 mM MgCl2. Cells lysed using 1% sodium dodecyl sulfate (SDS) were analyzed by scintillation counting.
(§3) To calculate the fold change of the half-maximal inhibitory concentration (IC50) between hNCC(WT) and different hNCC variants, individual dose-response curves were normalized first using the smallest mean and the value of the lowest concentration as 0% and 100%, respectively. The normalized data were then fitted using the “EC50 shift” nonlinear regression in GraphPad Prism 10 with the shared EC50Control assigned to be the IC50 of hNCC(WT). The following constraints were used in the EC50 shift analysis. The EC50Control was set to be shared across all curves under analysis and constrained to be greater than 0. The EC50Ratio was constrained to be greater than 0. The bottom, top, and HillSlope were constrained to be 0, 100, and −1, respectively. For Fig. 1f, g and Supplementary Fig. 2d, GraphPad Prism 10 was used to perform curve fitting and IC50 calculation for normalized data using y = 100/(1 + (x/IC50)).

For assay [2], the system named is hNCC(V231M). As to the kind of experiment: 125I- uptake assay, hNCC(V231M) variant. It counts as cell-based, human. The conditions noted are these: V231M polymorphism. As for the experimental part: as §1, §2, §3
The mark [3] stands for this setting: thiazide-sensitive iodide uptake, HEK293S stable cells, 1 mM extracellular iodide.

For `NS(=O)(=O)c1cc(C2(O)NC(=O)c3ccccc32)ccc1Cl` (centres unmarked) [chlorthalidone], the “apparent affinity compared to polythiazide (times lower)” value in assay [1] is ~ 40 times. This compound returned an IC50 in assay [1] (setting [3]) of 23 nM. Moreover, the “sensitivity relative to hNCC(WT) (fold lower)” value in assay [2] is on record as 3 fold.
In assay [1] (as quoted in reviewer comment on the earlier manuscript version), `CC1Cc2ccccc2N1NC(=O)c1ccc(Cl)c(S(N)(=O)=O)c1` (centres unmarked) [indapamide] came in with an IC50 of 9.3 nM. The “apparent affinity compared to polythiazide (times lower)” value in assay [1] is ~ 16 times. Further, in assay [2], the “sensitivity relative to hNCC(WT) (fold lower)” value was 2 fold.
As to `CN1C(CSCC(F)(F)F)Nc2cc(Cl)c(S(N)(=O)=O)cc2S1(=O)=O` (centres unmarked) [polythiazide], the half-inhibitory concentration (IC50) in assay [1] (setting [3]) is 0.58 nM and ~0.5 nM. Further, the “sensitivity relative to hNCC(WT) (fold lower)” value in assay [2] is “nearly as sensitive as the wild-type”.
